One series relates to rats. Put plainly: FCA (Freunds Complete Adjuvant) model of inflammatory hypersensitivity to pain, weight bearing. It counts as in vivo, rat. The method, then:
• Naïve weight bearing readings were taken. The hypersensitivity to pain was measured using the Rat incapacitance tester (Linton instruments). This instrument is serviced once a year and should be regularly calibrated • All rats then received an intraplantar injection of 100 ul of FCA (Freund's complete adjuvant) into the left hind paw. The FCA was sonicated for 15 minutes prior to use. • Approximately 23 hrs after administration of the FCA, pre-dose weight bearing readings were taken. All animals were then ranked and randomised for dosing according to their FCA window (predose difference in grams−naïve difference in grams). […] Celebrex 10 mg/kg p.o. (positive control) as appropriate according to ranking and randomisation. • Animals were assessed in the weight bearing apparatus 1 hour post dose. • The study was blind and randomised by FCA window using the Latin square method. • % reversals were calculated by using the naïve, pre-dose and post dose values as follows: % Reversal=[(Pre-dose−Post-dose)/(Pre-dose−Naïve)]×100 • Graphs and ED50 were calculated where appropriate using Prism4. • Statistical analysis was carried out using ANOVA followed by calculating the least square means using the statistical package Statistica 6.1 • From the dose response curves the ED20 was determined for the combination study Results • Naïve weight bearing readings were taken. The hypersensitivity to pain was measured using the Rat incapacitance tester (Linton instruments). This instrument is serviced once a year and should be regularly calibrated • All rats then received an intraplantar injection of 100 ul of FCA (Freund's complete adjuvant) into the left hind paw. The FCA was sonicated for 15 minutes prior to use. • Approximately 23 hrs after administration of the FCA, pre-dose weight bearing readings were taken. All animals were then ranked and randomised for dosing according to their FCA window (predose difference in grams−naïve difference in grams). […] See table 5 for details of the groups • Animals were assessed in the weight bearing apparatus 1 hour post dose. • The study was blind and randomised by FCA window using the Latin square method. • % reversals were calculated by using the naïve, pre-dose and post dose values as follows: % Reversal=[(Pre-dose−Post-dose)/(Pre-dose−Naïve)]×100 • Statistical analysis was carried out using ANOVA followed by calculating the least square means using the statistical package Statistica 6.1 • ED50 and ED20 values and graphs were calculated using prism5 • Naïve weight bearing readings were taken. The hypersensitivity to pain was measured using the Rat incapacitance tester (Linton instruments). This instrument is serviced once a year and should be regularly calibrated • All rats then received an intraplantar injection of 100 ul of FCA (Freund's complete adjuvant) into the left hind paw. The FCA was sonicated for 15 minutes prior to use. • Approximately 23 hrs after administration of the FCA, pre-dose weight bearing readings were taken. All animals were then ranked and randomised for dosing according to their FCA window (predose difference in grams−naïve difference in grams). […] Graphs and ED50 were calculated where appropriate using Prism5 • Statistical analysis was carried out using ANOVA followed by calculating the least square means using the statistical package Statistica 6.1 Results

The next series relates to Male CD rats. Put plainly: Rat MEST model (maximal electroshock seizure threshold). It counts as in vivo. The method, then:
This work was conducted in compliance with the Home Office Guidance on the operation of the Animals (Scientific Procedures) Act 1986 and GlaxoSmithKline ethical standards. Male CD rats (100-145 g) were supplied by Charles River, UK. Animals were group housed (6 animal per cage) with free access to food (Standard rodent chow; Harlan, UK) and water under a 12 h light/dark cycle (lights on at 0700 h). A period of at least one week between arrival at GSK and the study was allowed in all cases.
Animals were administered a test compound at the appropriate dose, route and pre-treatment time and returned to their home cage. Testing occurred in a separate room from that used for housing. Testing involved determining the threshold for tonic hindlimb extensor seizures using a Hugo Sachs Electronik stimulator which delivers a constant current of 0.3 second duration, 50 Hz, sinewave form, fully adjustable between 1 and 300 mA. Stimuli were delivered via corneal electrodes (Stean T O, Atkins A R, Heidbreder C A, Quinn L P, Trail B K, Upton N. (2005) Br J. Pharmacol. 144(5):628-35). Seizure threshold was determined using the ‘up and down’ method of Kimball et al. (1957)(Kimball A W, Burnett W T Jr, Doherty D G. (1957) Radiat Res. 7(1):1-12). The first animal tested in each group was stimulated with a current that might be expected to be close to the threshold for induction of a seizure. If a tonic seizure was not induced, then then next animal in the group received a stimulus 5 mA higher. If a tonic seizure was induced, then the next animal received a stimulus 5 mA lower. This is repeated for all animals within the control (vehicle) group. In the case of groups treated with a sodium channel blocker steps of 10 to 30 mA were used.
(§1) All doses were calculated as base. ENa9 and ENa13 were dosed via the subcutaneous (s.c.) route at 1 ml/kg in a 2% v/v DMSO/saline vehicle 30 minutes prior to test. ENa7 and ENa14 were dosed orally (p.o.) in a 1% w/v methylcellulose/water vehicle at 2 ml/kg, 60 minutes before test. Compound ENK6 was dosed with via the intraperitoneal (i.p.) route 60 minutes before the test or via the s.c. route 15 minutes before test. In both cases ENK6 was dissolved in saline.
Induction of seizure is measured as an all-or-nothing effect scored as either present (+) or absent (0) for each animal. The data for each treatment group were recorded as the number of +'s and 0's at each current level employed and this information was then used to calculate the CC50 value (current required for 50% of animals to show seizure behaviour)+standard error of the mean according to the method of Kimball et al. (1957). Drug effects were calculated as the % change in CC50. Significant differences between drug-treated animals and appropriate vehicle treated groups were assessed according to the methods of Litchfield and Wilcoxon (1949). The statistical significance of differences between sodium channel blocker alone or in combination with ENK6 was assessed using a Student's t test.
For orientation: In the maximal electroshock model the usual endpoint is tonic extension of the hind limbs.

Series [1] is described as follows: Blood and brain concentrations in satellite animals of the MEST studies. It counts as in vivo, rat. Conditions: 1 and 3 mg/kg s.c. with ENK6 30 mg/kg i.p. The method, then:
Satellite animals (n=3/group) received the same drugs or combinations of drugs as the test groups, and were culled at the appropriate time after dosing. Blood and brain samples were taken for analysis of the drug concentrations in these compartments.
as §1

Where [2] appears, read: ED20 dose alone (ENa7 0.1 mg/kg p.o.; ENK6 0.08 mg/kg s.c.).
The mark [3] stands for this setting: FIG. 3, group marked by vertical arrow, ENK6 10 mg/kg sc 15 min ptt, Ena7 1 & 3 mg/kg po 60 min ptt.
The mark [4] stands for this setting: 3 mg/kg s.c., 30 min before test, alone.

As for `Nc1nnc(-c2cccc(Cl)c2Cl)c(N)n1` [ENa7, 3,5-diamino-6-(2,3-dichlorophenyl)-1,2,4-triazine, reference compound], the “effect on FCA induced hypersensitivity” value with rats (0.1-3.0 mg/kg, alone, 1 hour post dose) was “dose related reversal of the FCA induced hypersensitivity”. Further, in the series with rats (setting [2]), the “effect on FCA induced hypersensitivity” value was “no significant effect on the FCA induced hypersensitivity”. For the same molecule, the “effect on seizure threshold” value in the series with Male CD rats (1 mg/kg p.o., 60 min before test, alone) was “little or no increase in seizure threshold”. Further, in the series on Male CD rats (setting [3]), the CC50 value result is “greater than 180 mA” and the “increase in CC50” value was more than 780%.

In the case of `COc1ccc(-n2nnnc2C(F)(F)F)cc1CN[C@H]1CCCN[C@H]1c1ccccc1.Cl.Cl` [ENK6, [2-Methoxy-5-(5-trifluoromethyl-tetrazol-1-yl)-benzyl]-([2S,3S]-2-phenyl-piperidin-3-yl)-amine dihydrochloride], the “effect on FCA induced hypersensitivity” value with rats (0.1-3.0 mg/kg, alone, 1 hour post dose, dihydrochloride) is given as “dose related reversal of the FCA induced hypersensitivity”; with rats (setting [2]) it was “no significant effect on the FCA induced hypersensitivity”. Also, the “ED20, reversal of FCA induced hypersensitivity” value with rats (s.c., alone (summary of results)) is recorded as “approx 0.08 mg/kg”. Besides, the “effect on seizure threshold” value with Male CD rats (10 mg/kg s.c., 15 min before test, alone (first experiment)) is “no effect on seizure threshold”; with Male CD rats (30 mg/kg i.p., 60 min before test, alone), “no effect on seizure threshold”; in the series on Male CD rats (30 mg/kg s.c., 15 min before test, alone) it was “no effect on seizure threshold”.

Turning to `Nc1nc(N)c(-c2cccc(Cl)c2Cl)c(CF)n1` [ENa15, R(−)-2,4-diamino-5-(2,3-dichlorophenyl)-6-fluoromethyl pyrimidine methanesulphonate], in the series on Male CD rats (0.3 mg/kg p.o., 60 min before test, alone), the “effect on seizure threshold” value is “no increase in seizure threshold”. In addition, the “increase in CC50(mA)” value with Male CD rats (1 mg/kg p.o. in the presence of ENK6 30 mg/kg s.c.) is on record as 51%.

With `Cl.NC(=O)[C@@H]1CC[C@H](c2ccc(OCc3ccccc3F)cc2)N1` [ENa9, (5R)-5-(4-{[(2-fluorophenyl)methyl]oxy}phenyl)-L-prolinamide hydrochloride], the “blood or brain concentration in the presence of ENK6 versus alone” value in series [1] is “No increase”. The “effect on seizure threshold” value in the series on Male CD rats (setting [4]) is given as “small, but significant increase in seizure threshold”.

Turning to `CN1CC[C@]2(CC[C@H](c3ccc(OCc4ccccc4F)cc3)N2)C1=O.Cl` [ENa13, (2R,5R)-2-(4-{[(2-Fluorophenyl)methyl]oxy}phenyl)-7-methyl-1,7-diazaspiro[4,4]nonan-6-one hydrochloride], the “blood or brain concentration in the presence of ENK6 versus alone” value in series [1] is recorded as “No increase”. Further, the “effect on seizure threshold” value with Male CD rats (setting [4]) is “robust and significant increase in seizure threshold”.

The values are drawn from US8093268B2, “Pharmaceutical compositions comprising 2-methoxy-5-(5-trifluoromethyl-tetrazol-1-yl-benzyl)-(2S-phenylpiperidin-3S-yl-)” (Glaxo Group Limited, priority 2007, dated 2012).
